Laboratory results taken from patent US20160128926A1, “COMPOSITIONS AND METHODS FOR TREATING NAILS, CLAWS, AND HOOFS” (TOPICAL SOLUTIONS, INC., priority 2013, published 2016).

Columns and labels:
[1] = system: Prostanoid F receptor family and the Prostanoid E1 receptor family; test: R-SAT functional assay (Reference Example 2), cited as the method for Example 2; format: cell-based; details: 23 Days
From the text: Without intending to be limited by theory, there are two principal prostaglandin receptor families that control nail growth: the Prostanoid F receptor family and the Prostanoid E1 receptor family. Potential at these receptors in measured in two types of assays-binding assays and functional assays. The functional assay is described herein and the binding assay is above as Reference Example 1.
There are many functional assays available, for example, growth in Swiss 3T3 cells. Preferred is the R-SAT system. R-SAT is a cell-based assay system where genes are transferred to cultured cells. The functional activity of the gene products, or potential drug targets, are then evaluated through signal transduction pathways that lead to cellular growth. The growth signals are reported using marker gene technologies. Thus, effects of drugs on potential drug targets can be efficiently detected as changes in color or fluorescence. R-SAT enables the efficient screening of large compound libraries for identification of new chemistries at given targets, as well as detailed pharmacological testing of compounds at a wide range of targets, as described in MESSIER, T., DORMAN, C. M.; BRAUNEROSBORNE, H.; EUBANKS, D. & BRANN, M. R. (1995) Pharmacol. and Toxicol. 76 308-311, incorporated herein by reference.
was tested according to the method of Reference Example 2.

[2] = biological target: T1, hFP prostaglandin receptor (Homo sapiens, UniProt P43088); test: Competition binding assay (Reference Example 1), cited as the method for Example 1
T1 construct: expressed in transfected cells; host or cells: COS 7 cells transiently transfected (pCR 3.1 vector); the summary sentence instead says stably transfected CHO-KI cells
T1 sequence (P43088 whole entry): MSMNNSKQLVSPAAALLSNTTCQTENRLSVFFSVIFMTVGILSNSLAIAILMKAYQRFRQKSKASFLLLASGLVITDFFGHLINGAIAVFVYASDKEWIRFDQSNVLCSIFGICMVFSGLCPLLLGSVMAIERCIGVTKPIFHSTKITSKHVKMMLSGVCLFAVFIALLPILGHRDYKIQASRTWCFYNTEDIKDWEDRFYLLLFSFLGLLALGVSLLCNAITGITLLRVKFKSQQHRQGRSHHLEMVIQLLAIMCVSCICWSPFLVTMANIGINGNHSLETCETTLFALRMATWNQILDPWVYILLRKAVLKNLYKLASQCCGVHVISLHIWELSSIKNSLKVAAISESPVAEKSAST

Average Grades ([2]; 23 Days) | Average Grades ([2]; 25 Days) | Average Grades ([2]; 26 Days) | SMILES | Average Grades [1]
– | – | – | COC(=O)CCCCCC[C@@H]1[C@@H](CCC(O)CSc2ccccc2Br)[C@H](O)C[C@@H]1O (stereo partly shown) [Example 2] | 0.1
0.4 | 0.1 | 0.7 | CC(C)OC(=O)CCCCCC[C@@H]1[C@@H](CCC(O)CSc2ccccc2)[C@H](O)C[C@@H]1O (stereo partly shown) [Example 1] | –
